Test results from patent US20250122218A1, “MODULATORS OF CYSTIC FIBROSIS TRANSMEMBRANE CONDUCTANCE REGULATOR” (Vertex Pharmaceuticals Incorporated, priority 2022, published 2025).

target: T1, CFTR in F508del/MF-HBE cells (Homo sapiens, UniProt P13569, DEL508-508); assay: Ussing chamber assay of CFTR-mediated short-circuit currents (identification of potentiator compounds); type: cell-based; details: potentiator incubated 18-24 hours at 37° C. in combination with 10 μM corrector, in the presence of 20% human serum, CFTR-mediated ISC
T1 construct: human bronchial epithelial (HBE) cells derived from CF subjects heterozygous for F508del and a minimal function CFTR mutation; endogenous in cells; host or cells: primary human bronchial epithelial cells from CF subjects (F508del/MF-HBE)
T1 sequence (P13569 with tags, fused parts or gaps DEL508-508): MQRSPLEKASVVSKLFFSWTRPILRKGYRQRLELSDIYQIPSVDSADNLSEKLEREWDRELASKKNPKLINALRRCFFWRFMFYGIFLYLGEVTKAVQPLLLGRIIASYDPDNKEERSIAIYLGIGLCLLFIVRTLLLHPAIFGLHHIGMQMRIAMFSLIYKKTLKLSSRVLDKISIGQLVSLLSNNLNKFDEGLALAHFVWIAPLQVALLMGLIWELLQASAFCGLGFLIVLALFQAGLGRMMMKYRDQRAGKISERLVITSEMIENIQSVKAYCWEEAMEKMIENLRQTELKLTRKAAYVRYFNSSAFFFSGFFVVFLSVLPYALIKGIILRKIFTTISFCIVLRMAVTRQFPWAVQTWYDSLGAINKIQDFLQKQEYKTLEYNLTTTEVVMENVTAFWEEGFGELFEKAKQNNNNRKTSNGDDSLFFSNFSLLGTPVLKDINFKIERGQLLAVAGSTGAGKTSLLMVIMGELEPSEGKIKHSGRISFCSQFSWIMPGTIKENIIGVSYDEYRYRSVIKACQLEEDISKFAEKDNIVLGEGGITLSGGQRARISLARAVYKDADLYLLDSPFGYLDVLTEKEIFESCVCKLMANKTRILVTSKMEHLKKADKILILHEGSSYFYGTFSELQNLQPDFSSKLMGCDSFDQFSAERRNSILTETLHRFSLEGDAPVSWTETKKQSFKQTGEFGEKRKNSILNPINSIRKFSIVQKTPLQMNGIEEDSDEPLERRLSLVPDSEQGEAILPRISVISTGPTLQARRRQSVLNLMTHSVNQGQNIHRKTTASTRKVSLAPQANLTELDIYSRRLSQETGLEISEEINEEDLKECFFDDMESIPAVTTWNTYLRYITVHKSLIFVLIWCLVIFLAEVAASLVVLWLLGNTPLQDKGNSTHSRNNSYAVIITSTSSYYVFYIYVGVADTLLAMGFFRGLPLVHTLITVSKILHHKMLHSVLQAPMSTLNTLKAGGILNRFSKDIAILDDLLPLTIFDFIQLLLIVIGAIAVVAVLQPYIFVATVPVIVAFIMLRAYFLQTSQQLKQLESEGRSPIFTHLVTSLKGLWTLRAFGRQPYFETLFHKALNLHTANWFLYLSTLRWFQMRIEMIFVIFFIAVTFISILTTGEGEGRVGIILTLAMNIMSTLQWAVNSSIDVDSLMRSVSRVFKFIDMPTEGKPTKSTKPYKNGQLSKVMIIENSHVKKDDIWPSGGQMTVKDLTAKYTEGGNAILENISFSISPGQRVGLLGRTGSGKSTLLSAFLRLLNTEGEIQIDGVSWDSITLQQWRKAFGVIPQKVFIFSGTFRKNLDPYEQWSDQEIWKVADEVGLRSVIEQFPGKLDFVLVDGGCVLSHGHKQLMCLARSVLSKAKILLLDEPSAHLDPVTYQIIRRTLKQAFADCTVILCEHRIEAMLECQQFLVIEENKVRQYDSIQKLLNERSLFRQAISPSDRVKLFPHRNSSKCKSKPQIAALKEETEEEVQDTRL
In short: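 Short-circuit current was measured in Ussing chambers at 37° C, Vhold 0 mV, 30 μM apical amiloride. CFTR current was defined as the forskolin (20 μM) response relative to the current remaining after BPO/GlyH-101/inhibitor 172 (20 μM each). Before recording, cells had 18-24 h exposure to test potentiators with 10 μM corrector compound in 20% human serum.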

Row | Structure (SMILES) | EC50 [nM]
1 | Cc1cnc(CN2CCCCC[C@](O)(C(F)(F)F)C3=NN=C(O3)c3nc(c(C(F)(F)F)cc3N)C2=O)cn1 [Compound 167, (6R)-- 17-amino-6-hydroxy-12-[(5-methylpyrazin-2-yl)methyl]-6,15-bis (trifluoromethyl)-19-oxa-3,4,12,18-tetrazatricyclo [12.3.1.12,5] nonadeca-1(18),2,4,14,1 6-pentaen-13-one] | > 1000
2 | CCCc1ccccc1CN1CCCCC[C@](O)(C(F)(F)F)C2=NN=C(O2)c2nc(c(C(F)(F)F)cc2N)C1=O [Compound 168, (6R)-17-amino-6-hydroxy-12-[(2-propylphenyl)methyl]-6,15-bis (trifluoromethyl)-19-oxa-3,4,12,18-tetrazatricyclo [12.3.1.12,5] nonadeca-1(18),2,4,14,1 6-pentaen-13-one] | < 500
3 | Cc1cnc(CN2CCCCC[C@](O)(C(F)(F)F)C3=NN=C(O3)c3nc(c(C(F)(F)F)cc3N)C2=O)nc1 [Compound 169, (6R)-17-amino-6-hydroxy-12-[(5-methylpyrimidin-2-yl)methyl]-6,15-bis (trifluoromethyl)-19-oxa-3,4,12,18-tetrazatricyclo [12.3.1.12,5] nonadeca-1(18),2,4,14,1 6-pentaen-13-one] | > 1000
4 | CC(C)(C)Cc1ccc(CN2CCCCC[C@](O)(C(F)(F)F)C3=NN=C(O3)c3nc(c(C(F)(F)F)cc3N)C2=O)cc1 [Compound 170, (6R)-17-amino-12-[[4-(2,2-dimethylpropyl)phenyl]methyl]-6-hydroxy-6,15-bis (trifluoromethyl)-19-oxa-3,4,12,18-tetrazatricyclo [12.3.1.12,5] nonadeca-1(18),2,4,14,1 6-pentaen-13-one] | < 500
5 | CC(C)(C)c1ncc(CN2CCCCC[C@](O)(C(F)(F)F)C3=NN=C(O3)c3nc(c(C(F)(F)F)cc3N)C2=O)cn1 [Compound 171, (6R)-17-amino-12-[(2-tert-butylpyrimidin-5-yl)methyl]-6-hydroxy-6,15-bis (trifluoromethyl)-19-oxa-3,4,12,18-tetrazatricyclo [12.3.1.12,5] nonadeca-1(18),2,4,14,1 6-pentaen-13-one] | < 500
6 | CC(C)Oc1cccc(CN2CCCCC[C@](O)(C(F)(F)F)C3=NN=C(O3)c3nc(c(C(F)(F)F)cc3N)C2=O)c1 [Compound 172, (6R)-17-amino-6-hydroxy-12-[(3-isopropoxyphenyl)methyl]-6,15-bis (trifluoromethyl)-19-oxa-3,4,12,18-tetrazatricyclo [12.3.1.12,5] nonadeca-1(18),2,4,14,1 6-pentaen-13-one] | < 500
7 | Nc1cc(C(F)(F)F)c2nc1-c1nnc(o1)[C@@](O)(C(F)(F)F)CCCCCN(Cc1ccc(-c3ccccc3)cc1)C2=O [Compound 173, (6R)-17-amino-6-hydroxy-12-[(4-phenylphenyl)methyl]-6,15-bis (trifluoromethyl)-19-oxa-3,4,12,18-tetrazatricyclo [12.3.1.12,5] nonadeca-1(18),2,4,14,1 6-pentaen-13-one] | < 500
8 | CC1(C)CCCC[C@](O)(C(F)(F)F)C2=NN=C(O2)c2nc(c(C(F)(F)F)cc2N)C(=O)N1 [Compound 174, (6R)-17-amino-6-hydroxy-11,11-dimethyl-6,15-bis (trifluoromethyl)-19-oxa-3,4,12,18-tetrazatricyclo [12.3.1.12,5] nonadeca-1(18),2,4,14,1 6-pentaen-13-one] | < 500
9 | COc1ccc(CN2CCCCC[C@](O)(C(F)(F)F)C3=NN=C(O3)c3nc(c(C(F)(F)F)cc3N)C2=O)c(F)c1F [Compound 175, (6R)-17-amino-12-[(2,3-difluoro-4-methoxy-phenyl)methyl]-6-hydroxy-6,15-bis (trifluoromethyl)-19-oxa-3,4,12,18-tetrazatricyclo [12.3.1.12,5] nonadeca-1(18),2,4,14,1 6-pentaen-13-one] | < 500
10 | COc1cc(F)cc(CN2CCCCC[C@](O)(C(F)(F)F)C3=NN=C(O3)c3nc(c(C(F)(F)F)cc3N)C2=O)c1 [Compound 176, (6R)-17-amino-12-[(3-fluoro-5-methoxy-phenyl)methyl]-6-hydroxy-6,5-bis (trifluoromethyl)-19-oxa-3,4,12,18-tetrazatricyclo [12.3.1.12,5] nonadeca-1(18),2,4,14,1 6-pentaen-13-one] | < 500
11 | COc1ccc(CN2CCCCC[C@](O)(C(F)(F)F)C3=NN=C(O3)c3nc(c(C(F)(F)F)cc3N)C2=O)c(F)c1 [Compound 177, (6R)-17-amino-12-[(2-fluoro-4-methoxy-phenyl)methyl]-6-hydroxy-6,15-bis (trifluorom ethyl)-19-oxa-3,4,12,18-tetrazatricyclo [12.3.1.12,5] nonadeca-1(18),2,4,14,1 6-pentaen-13-one] | < 500
12 | Nc1cc(C(F)(F)F)c2nc1-c1nnc(o1)[C@@](O)(C(F)(F)F)CCCCCN(Cc1cc(Cl)cc(OC(F)(F)F)c1)C2=O [Compound 178, (6R)-17-amino-12-[[3-chloro-5-(trifluoromethoxy)phenyl]methyl]-6-hydroxy-6,15-bis (trifluoromethyl)-19-oxa-3,4,12,18-tetrazatricyclo [12.3.1.12,5] nonadeca-1(18),2,4,14,1 6-pentaen-13-one] | < 500
13 | Cc1cc(CN2CCCCC[C@](O)(C(F)(F)F)C3=NN=C(O3)c3nc(c(C(F)(F)F)cc3N)C2=O)cc(OC(F)(F)F)c1 [Compound 179, (6R)-17-amino-6-hydroxy-12-[[3-methyl-5-(trifluoromethoxy)phenyl]methyl]-6,15-bis (trifluoromethyl)-19-oxa-3,4,12,18-tetrazatricyclo [12.3.1.12,5] nonadeca-1(18),2,4,14,1 6-pentaen-13-one] | < 500
14 | Cc1c(CN2CCCCC[C@](O)(C(F)(F)F)C3=NN=C(O3)c3nc(c(C(F)(F)F)cc3N)C2=O)cccc1OC(F)(F)F [Compound 180, (6R)-17-amino-6-hydroxy-12-[[2-methyl-3-(trifluoromethoxy)phenyl]methyl]-6,15-bis(trifluoromethyl)-19-oxa-3,4,12,18-tetrazatricyclo [12.3.1.12,5] nonadeca-1(18),2,4,14,1 6-pentaen-13-one] | < 500
15 | Nc1cc(C(F)(F)F)c2nc1-c1nnc(o1)[C@@](O)(C(F)(F)F)CCCCCN(Cc1ccc(OCC(F)(F)F)cc1)C2=O [Compound 181, (6R)-17-amino-6-hydroxy-12-[[4-(2,2,2-trifluoroethoxy)phenyl]methyl]-6,15-bis (trifluoromethyl)-19-oxa-3,4,12,18-tetrazatricyclo [12.3.1.12,5] nonadeca-1(18),2,4,14,1 6-pentaen-13-one] | < 500
16 | Nc1cc(C(F)(F)F)c2nc1-c1nnc(o1)[C@@](O)(C(F)(F)F)CCCCCN(Cc1cccc(C(F)(F)F)c1)C2=O [Compound 182, (6R)-17-amino-6-hydroxy-6,15-bis (trifluoromethyl)-12-[[3-(trifluoromethyl)phenyl]methyl]-19-oxa-3,4,12,18-tetrazatricyclo [12.3.1.12,5] nonadeca-1(18),2,4,14,1 6-pentaen-13-one] | < 500
17 | C[C@H]1C[C@H](c2ccc(CN3CCCCC[C@](O)(C(F)(F)F)C4=NN=C(O4)c4nc(c(C(F)(F)F)cc4N)C3=O)cc2)C1 [Compound 183, (6R)-17-amino-6-hydroxy-12-({4-[trans-3-methylcyclobutyl]phenyl}methyl)-6,15-bis (trifluoromethyl)-19-oxa-3,4,12,18-tetraazatricyclo [12.3.1.12,5] nonadeca-1(18),2,4,14,1 6-pentaen-13-one] | < 500
